# Reference: US20140243210A1, “PURIFICATION OF IMMUNOGLOBULINS USING AFFINITY CHROMATOGRAPHY AND PEPTIDE LIGANDS” (priority 2005, published 2014)
# “And” between values parts separate entries of the source, which are not always exact repeats. Equal entries are not always repeated. Where two headings read alike, the source gives them in different places. No end group written: not given here.
# Columns and labels:
# [1] = target: HIgG; assay: Adsorption isotherm measurements, Langmuir model; format: binding, human
# Protocol: Individual peptide sequences determined to bind the Fc fragment of HIgG in primary screening were synthesized directly onto Toyopearl AF-amino-650 M resin (Tosoh BioSciences, Montgomeryville, Pa.) at a substitution of 100 μmol/g resin (Peptides International, Louisville, Ky.). […] Adsorption isotherms were measured in a set of batch experiments at room temperature. All the experiments were performed at least in duplicate. Beads were washed thoroughly and equilibrated with PBS buffer. Centrifugal filters (0.5 ml) with 0.45 μm Durapore membranes (Millipore, Milford, Mass.) were used as adsorption vessels. Resins (10 mg of resin in each vessel) were then equilibrated overnight in PBS, pH 7.4 (Sigma Chemical, St. Louis, Mo.). After removing the PBS, 400 μl of HIgG solutions with concentrations from 0.05 to 10 mg/ml in PBS were added separately to the reaction vessels and incubated on an orbital shaker for 2 hours. The unbound HIgG fractions were collected by centrifugation and the protein concentrations were determined using a Micro-BCA Assay (Pierce, Rockford, Ill.) or by UV-absorbance at 280 nm. The amount of bound HIgG was calculated by mass balance. The data were fit to a Langmuir isotherm model (see Equation 2, below).
# where, q=Concentration of bound adsorbate mg-protein/g-resin C=Concentration of free adsorbate mg-protein/ml-solution Kd=Dissociation constant mg/ml qm=Maximum capacity constant mg-protein/g-resin
# [2] = tested on: intact HIgG; assay: Secondary screening, batch format, competitive and non-competitive modes; format: binding, human; settings: for Competitive condition, Bound / Competitive condition, Unbound / Non-competitive, Bound / Non-competitive, Unbound: second round; for Competitive condition, Bound / Competitive condition, Unbound: HIgG in MEM, radiolabel extent 2.9%; for Non-competitive, Bound / Non-competitive, Unbound: HIgG in PBS; for Bound %, HIgG, Competitive / Bound %, HIgG, Non-competitive (Micro-BCA): first round; for Bound %, HIgG, Competitive: 14C-HIgG 1 μM spiked in MEM (10% FCS, 5% TPB), radiolabel extent 3.6%; for Bound %, HIgG, Non-competitive (Micro-BCA): pure HIgG 1 μM in PBS
# Protocol: (§1) The batch format was used in both competitive and non-competitive modes. The non-competitive mode involved screening using only pure target proteins in PBS buffer. For the competitive mode, target proteins were spiked into mammalian culture medium MEM (Minimum Essential Medium) containing 10% fetal calf serum (FCS) and 5% tryptose phosphate broth (TPB).
# (§2) Two target proteins, the Fc fragment of human IgG (HIgG) and intact HIgG, were applied at a concentration of 1 μM. To carry out the secondary screening, 20 mg of the re-synthesized resins were swelled with 20% methanol for one hour, then washed thoroughly and equilibrated with PBS buffer. The beads were incubated with 400 μl of 1 μM 14C-Fc or 14C-IgG in the corresponding solutions in a 0.5 ml centrifuge filter with a 0.45 μm Durapore membrane (Millipore, Milford, Mass.) on a rotating plate for two hours. The particles were washed with PBS buffer for 15 min, and then sequentially washed for one hour each with 400 of: 1 M NaCl in PBS, then 2% acetic acid (AcOH) and 6 M guanidine chloride (GdnHCl). After centrifugation each solution was collected into scintillation fluid for radioactivity counting. The total unbound protein was determined by combining the counts of unbound protein and the wash of PBS. Finally, resins were suspended in scintillation liquid and counted for radioactivity in the same manner, allowing a total radioactivity balance.
# [3] = tested on: Fc fragment of human IgG (HIgG); assay: as above; format: binding; settings: first round; for Bound %, Fc fragment, Non-competitive: 14C-Fc 1 μM in PBS; for Bound %, Fc fragment, Competitive: 14C-Fc 1 μM spiked in MEM (10% FCS, 5% TPB)
# Protocol: as §1, §2
# [4] = tested on: IgG; settings: cited from earlier work
# [5] = direct Langmuir fit, PBS pH 7.4, room temperature, peptides 0.1 meq/g, read-out: Kd, Langmuir
# [6] = direct Langmuir fit, PBS pH 7.4, peptides 0.1 meq/g
# [7] = double reciprocal curve, PBS pH 7.4, room temperature, peptides 0.1 meq/g, read-out: Kd, DR curve
# [8] = double reciprocal curve, PBS pH 7.4, peptides 0.1 meq/g
# [9] = substitution 0.080 mmol/g, read-out: Kd
# [10] = Table 6, direct Langmuir fit, 0.1 meq/g, PBS pH 7.4
substance,measurement,setting,value
WHWRKR [reference compound],Kd,[1]; [5],1.39 µM
same,"qm, Langmuir",[1]; [6],62.4 mg/g
same,Kd,[1]; [7],2.47 µM
same,"qm, DR curve",[1]; [8],81.9 mg/g
HWRGWV [hexapeptide ligand on Toyopearl AF-amino-650 M resin; 0.1 meq/g unless another substitution is stated],Kd,[1]; [5],1.33 µM
same,"qm, Langmuir",[1]; [6],50.0 mg/g
same,Kd,[1]; [7],2.8 µM
same,"qm, DR curve",[1]; [8],54.8 mg/g
same,qm,[1]; substitution 0.022 mmol/g,158.1 mg/g
same,Kd,"[1]; substitution 0.022 mmol/g, read-out: Kd",30 µM
same,qm,[1]; substitution 0.040 mmol/g,147.8 mg/g
same,Kd,"[1]; substitution 0.040 mmol/g, read-out: Kd",20.3 µM
same,qm,[1]; substitution 0.080 mmol/g,130 mg/g and 131.8 mg/g
same,Kd,[1]; [9],7.25 µM
same,qm,[1]; substitution 0.10 mmol/g (different synthesis batch),133.6 mg/g
same,Kd,"[1]; substitution 0.10 mmol/g (different synthesis batch), read-out: Kd",10.4 µM
same,qm,[1]; substitution 0.22 mmol/g,136.8 mg/g
same,Kd,"[1]; substitution 0.22 mmol/g, read-out: Kd",2.58 µM
same,qm,[1]; substitution 0.55 mmol/g,137.6 mg/g
same,Kd,"[1]; substitution 0.55 mmol/g, read-out: Kd",0.947 µM
HLKWYA (not fully specified (C-terminus)) [hexapeptide ligand on Toyopearl resin],"Competitive condition, Bound",[2],23.47%
same,"Competitive condition, Unbound",[2],76.53%
HIWA (not fully specified (C-terminus)),"Competitive condition, Bound",[2],12.87%
same,"Competitive condition, Unbound",[2],87.13%
same,"Non-competitive, Bound",[2],7.90%
same,"Non-competitive, Unbound",[2],92.10%
HEILYW (not fully specified (C-terminus)) [hexapeptide ligand on Toyopearl resin],"Bound %, Fc fragment, Non-competitive",[3],18.01%
same,"Bound %, Fc fragment, Competitive",[3],3.20%
same,"Bound %, HIgG, Competitive",[2],5.50%
same,"Bound %, HIgG, Non-competitive (Micro-BCA)",[2],9.16%
truncation of the subunit GFRKYLHFRRHLL of a multiple antigenic peptide (MAP) (Immunoglobulin binding peptide sequence),qm,[1]; [10],157.9 mg/g
same,"Competitive condition, Unbound",[2],59.13%
HFDKGF (not fully specified (C-terminus)) [hexapeptide ligand on Toyopearl resin],"Bound %, Fc fragment, Non-competitive",[3],12.95%
same,"Bound %, Fc fragment, Competitive",[3],4.28%
same,"Bound %, HIgG, Competitive",[2],6.01%
same,"Bound %, HIgG, Non-competitive (Micro-BCA)",[2],10.66%
EPIHRSTLTALL (not fully specified) [literature peptide ligand on Amino-NuGel (Hoffman LaRoche)],Capacity,"[4]; Amino-NuGel support, IgG source culture",320 μg/g μg/g gel
HYIDAK (not fully specified (C-terminus)) [hexapeptide ligand on Toyopearl resin],"Competitive condition, Bound",[2],8.64%
same,"Competitive condition, Unbound",[2],91.36%
"KLQWVH (Immunoglobulin binding peptide sequence) [from KLQMVX, with the substitution of M with W and X with H]","Competitive condition, Bound",[2],12.15%
same,"Competitive condition, Unbound",[2],87.85%
"HWRGWV [Ac-HWRGWV, acetylated HWRGWV on resin, 0.080 mmol/g]",qm,[1]; substitution 0.080 mmol/g,130 mg/g and 130.8 mg/g
same,Kd,[1]; [9],3.8 µM
"KRGFYY (Immunoglobulin binding peptide sequence) [combination of KRXXXX, KXXGX and aromatic amino acids F and YY]","Competitive condition, Bound",[2],17.27%
same,"Competitive condition, Unbound",[2],82.73%
HANGFL (not fully specified (C-terminus)) [hexapeptide ligand on Toyopearl resin],"Bound %, Fc fragment, Non-competitive",[3],10.23%
same,"Bound %, Fc fragment, Competitive",[3],25.64%
same,"Bound %, HIgG, Competitive",[2],5.58%
same,"Bound %, HIgG, Non-competitive (Micro-BCA)",[2],10.52%
Mannosylerythritol lipid,Capacity,[4]; Poly(2-hydroxyethyl methacrylate) support,106 mg/g mg/g gel
HPWYVT (not fully specified (C-terminus)) [hexapeptide ligand on Toyopearl resin],"Competitive condition, Bound",[2],26.96%
same,"Competitive condition, Unbound",[2],73.04%
HIQLDG (not fully specified (C-terminus)) [hexapeptide ligand on Toyopearl resin],"Competitive condition, Bound",[2],10.03%
same,"Competitive condition, Unbound",[2],89.97%
HYGLGW (not fully specified (C-terminus)) [hexapeptide ligand on Toyopearl resin],"Bound %, Fc fragment, Non-competitive",[3],19.75%
same,"Bound %, Fc fragment, Competitive",[3],4.91%
same,"Bound %, HIgG, Competitive",[2],14.48%
same,"Bound %, HIgG, Non-competitive (Micro-BCA)",[2],17.89%
"HVHYYW [hexapeptide ligand on Toyopearl resin, 0.1 meq/g]",qm,[1]; [10],129.0 mg/g
same,"Competitive condition, Unbound",[2],56.73%
same,"Non-competitive, Bound",[2],55.49%
same,"Non-competitive, Unbound",[2],44.51%
HWGPTK (not fully specified (C-terminus)) [hexapeptide ligand on Toyopearl resin],"Competitive condition, Bound",[2],19.93%
same,"Competitive condition, Unbound",[2],80.07%
same,"Non-competitive, Bound",[2],14.39%
same,"Non-competitive, Unbound",[2],85.61%
HVWQLK (not fully specified (C-terminus)) [hexapeptide ligand on Toyopearl resin],"Competitive condition, Bound",[2],15.05%
same,"Competitive condition, Unbound",[2],84.95%
HDVFHT (not fully specified (C-terminus)) [hexapeptide ligand on Toyopearl resin],"Competitive condition, Bound",[2],8.55%
same,"Competitive condition, Unbound",[2],91.45%
KGEA (not fully specified (C-terminus)),"Competitive condition, Bound",[2],7.34%
same,"Competitive condition, Unbound",[2],92.66%
same,"Non-competitive, Bound",[2],6.08%
same,"Non-competitive, Unbound",[2],93.92%
HWIDPL (not fully specified (C-terminus)) [hexapeptide ligand on Toyopearl resin],"Competitive condition, Bound",[2],19.91%
same,"Competitive condition, Unbound",[2],80.09%
same,"Non-competitive, Bound",[2],9.03%
same,"Non-competitive, Unbound",[2],90.97%
(RTY)4K2KG [TG19318 (PAM)],Capacity,[4]; Epoxy-activated Eupergit C30N support,25 mg/ml mg/ml gel
HRPKIF [HRPLIF],"Bound %, Fc fragment, Non-competitive",[3],21.46%
same,"Bound %, Fc fragment, Competitive",[3],24.48%
same,"Bound %, HIgG, Competitive",[2],4.51%
same,"Bound %, HIgG, Non-competitive (Micro-BCA)",[2],11.20%
Protein A: protein A immobilized by the CNBr method to 4% cross-linked agarose beads (Amersham Biosciences); positive control [reference compound],Capacity,[4]; 4% cross-link agarose,20 mg/ml mg/ml moist gel
"HYFKFD [hexapeptide ligand on Toyopearl resin, 0.1 meq/g]",qm,[1]; [10],126.8 mg/g
same,Kd,"[1]; Table 6, direct Langmuir fit, 0.1 meq/g, PBS pH 7.4, read-out: Kd",11.4 µM
same,"Competitive condition, Unbound",[2],56.74%
same,"Non-competitive, Bound",[2],69.31%
same,"Non-competitive, Unbound",[2],30.69%
